Laboratory results published in PubChem BioAssay AID493136 (Sanford-Burnham Center for Chemical Genomics, 2011).
Active and inactive are the calls of the source. How the calls were made is not given here.

These compounds were tested against Alkaline phosphatase, germ cell type (Homo sapiens) (UniProt P10696) (assay: inhibitors of germ cell alkaline phosphatase – biochemical, human placental-like ALPPL2 isozyme, selectivity assay for mouse IAP inhibitor project, SAR follow-up (AID 493136)). Settings: purified placental-like alkaline phosphatase, phosphatase activity.
Sequence of Alkaline phosphatase, germ cell type (Homo sapiens) (P10696 whole entry, looked up): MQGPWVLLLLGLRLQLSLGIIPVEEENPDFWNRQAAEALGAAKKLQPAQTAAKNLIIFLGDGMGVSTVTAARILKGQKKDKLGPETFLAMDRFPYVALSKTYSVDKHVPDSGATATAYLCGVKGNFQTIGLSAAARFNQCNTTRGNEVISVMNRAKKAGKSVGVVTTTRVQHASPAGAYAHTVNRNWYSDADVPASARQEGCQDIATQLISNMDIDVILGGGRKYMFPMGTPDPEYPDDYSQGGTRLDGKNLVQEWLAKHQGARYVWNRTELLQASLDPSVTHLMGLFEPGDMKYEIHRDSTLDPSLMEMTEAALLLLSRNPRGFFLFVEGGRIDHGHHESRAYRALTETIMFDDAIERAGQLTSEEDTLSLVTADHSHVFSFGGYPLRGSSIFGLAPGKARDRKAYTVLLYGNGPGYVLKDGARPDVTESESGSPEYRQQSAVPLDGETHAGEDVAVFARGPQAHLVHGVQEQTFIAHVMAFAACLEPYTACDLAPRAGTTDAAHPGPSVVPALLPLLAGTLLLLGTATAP

| IC50 | SMILES |
| --- | --- |
| > 100 µM (inactive) | NS(=O)(=O)c1ccc(NC(=S)NCCC(c2ccccc2)c2ccccc2)cc1 |
| > 100 µM (inactive) | CC1(c2ccccc2)CC(C)(C)N(C(=S)Nc2ccccc2)c2ccccc21 (stereo not drawn) |
| > 100 µM (inactive) | O=S(=O)(Nc1ncccn1)c1ccc(NC(=S)NCCC(c2ccccc2)c2ccccc2)cc1 |
| > 100 µM (inactive) | CC(C)n1cc(CN2CCC(C(=O)Nc3cccc(-c4cccc(Cl)c4)c3)CC2)cn1 |
| > 100 µM (inactive) | CCn1ncc(CN2CCC(C(=O)Nc3cccc(-c4cccc(F)c4)c3)CC2)c1C |
| > 100 µM (inactive) | Fc1ccccc1NC(=S)NCCC(c1ccccc1)c1ccccc1 |
| > 100 µM (inactive) | S=C(NCCC(c1ccccc1)c1ccccc1)Nc1ccccc1 |
| > 100 µM (inactive) | CCCn1ncc(CN2CCC(C(=O)Nc3cccc(-c4cccc(F)c4)c3)CC2)c1C |
| > 100 µM (inactive) | Cc1nn(C)c(Cl)c1CN1CCC(C(=O)Nc2cccc(-c3cccc(F)c3)c2)CC1 |
| > 100 µM (inactive) | CCOC(=O)c1ccc(NC(=S)NCCC(c2ccccc2)c2ccccc2)cc1 |
| > 100 µM (inactive) | CCN1CCN(S(=O)(=O)c2ccc3[nH]c(=O)oc3c2)CC1 |
| > 100 µM (inactive) | O=C(CN1C(=O)/C(=C/c2ccco2)SC1=S)Nc1ccc(C(=O)O)cc1 |
| > 100 µM (inactive) | C=CCn1cc(CN2CCC(C(=O)Nc3cccc(-c4cccc(Cl)c4)c3)CC2)c(C)n1 |
| > 100 µM (inactive) | S=C(NCCC(c1ccccc1)c1ccccc1)Nc1cccc(Cl)c1 |
| > 100 µM (inactive) | O=C(Nc1cccc(-c2cccc(Cl)c2)c1)C1CCN(Cc2ccc(CO)o2)CC1 |
| > 100 µM (inactive) | COc1ccc(C(=O)CSc2n[nH]c(-c3ccccc3)n2)cc1OC |
| > 100 µM (inactive) | CCc1ccccc1Nc1nc(-c2ccc(O)c(O)c2)cs1 |
| > 100 µM (inactive) | Cc1c(Cl)cccc1Nc1nc(-c2ccc(O)c(O)c2)cs1 |
| > 100 µM (inactive) | COc1cc([N+](=O)[O-])ccc1NC(=S)NCCC(c1ccccc1)c1ccccc1 |
| > 100 µM (inactive) | Oc1ccc(-c2csc(Nc3cccc4ccccc34)n2)cc1O |
| > 100 µM (inactive) | Cc1ccc(NC(=S)NCCC(c2ccccc2)c2ccccc2)cc1 |
| > 100 µM (inactive) | COCc1ccc(CN2CCC(C(=O)Nc3cccc(-c4cccc(Cl)c4)c3)CC2)o1 |
| > 100 µM (inactive) | COc1ccc(Cl)cc1Nc1nc(-c2ccc(O)c(O)c2)cs1 |

| IC50 | SMILES |
| --- | --- |
| > 100 µM (inactive) | CC(C)N1CCC(=NNC(=O)c2cc(O)c(O)c(O)c2)CC1 |
| > 100 µM (inactive) | Cc1c(Cl)cccc1NC(=S)NCCC(c1ccccc1)c1ccccc1 |
| > 100 µM (inactive) | COc1cc(NC(=S)NCCC(c2ccccc2)c2ccccc2)cc(OC)c1 |
| > 100 µM (inactive) | Cn1cc(CN2CCC(C(=O)Nc3cccc(-c4cccc(Cl)c4)c3)CC2)cn1 |
| > 100 µM (inactive) | Cc1cc(C)cc(NC(=S)NCCC(c2ccccc2)c2ccccc2)c1 |
| > 100 µM (inactive) | S=C(NCCC(c1ccccc1)c1ccccc1)Nc1ccc(Cl)cc1 |
| > 100 µM (inactive) | CC(C)n1cc(CN2CCC(C(=O)Nc3cccc(-c4cccc(F)c4)c3)CC2)cn1 |
| > 100 µM (inactive) | O=[N+]([O-])c1ccc(NC(=S)NCCC(c2ccccc2)c2ccccc2)cc1 |
| > 100 µM (inactive) | COc1ccc(Cl)cc1NC(=S)NCCC(c1ccccc1)c1ccccc1 |
| > 100 µM (inactive) | S=C(NCCC(c1ccccc1)c1ccccc1)Nc1ccc(Cl)cc1Cl |
| > 100 µM (inactive) | Cc1cc(NC(=O)CCNS(=O)(=O)c2ccc3[nH]c(=O)oc3c2)ccc1Br |
| > 100 µM (inactive) | Cc1cc(=O)oc2cc(NC(=S)NCCC(c3ccccc3)c3ccccc3)ccc12 |
| > 100 µM (inactive) | CCn1cc(CN2CCC(C(=O)Nc3cccc(-c4cccc(OC)c4)c3)CC2)c(C)n1 |
| > 100 µM (inactive) | O=C(CN1C(=O)/C(=C/c2ccco2)SC1=S)Nc1cccc(C(=O)O)c1 |
| > 100 µM (inactive) | COc1cccc(-c2cccc(NC(=O)C3CCN(Cc4ccc(C)o4)CC3)c2)c1 |
| > 100 µM (inactive) | Cc1ccc(NC(=O)CCNS(=O)(=O)c2ccc3[nH]c(=O)oc3c2)cc1C |
| > 100 µM (inactive) | O=C(Nc1cccc(-c2cccc(F)c2)c1)C1CCN(Cc2ccc(CO)o2)CC1 |
| > 100 µM (inactive) | Cc1cc(Cl)ccc1NC(=S)NCCC(c1ccccc1)c1ccccc1 |
| > 100 µM (inactive) | CC(C)c1ccccc1NC(=S)NCCC(c1ccccc1)c1ccccc1 |
| > 100 µM (inactive) | COC(=O)c1cc(NC(=S)NCCC(c2ccccc2)c2ccccc2)cc(C(=O)OC)c1 |
| > 100 µM (inactive) | CCn1cc(CN2CCC(C(=O)Nc3cccc(-c4cccc(Cl)c4)c3)CC2)cn1 |
| > 100 µM (inactive) | O=C(CN1C(=O)/C(=C\c2ccco2)SC1=S)Nc1ccccc1C(=O)O |
| > 100 µM (inactive) | FC(F)(F)c1cccc(NC(=S)NCCC(c2ccccc2)c2ccccc2)c1 |

| IC50 | SMILES |
| --- | --- |
| > 100 µM (inactive) | CN1CCC(=NNC(=O)c2cc(O)c(O)c(O)c2)CC1 |
| 24.4 µM | CCn1c(SCC(=O)c2ccc(O)c(O)c2)nnc1-c1ccccc1OC |
| > 100 µM (inactive) | O=C(Nc1cccc(-c2cccc(Cl)c2)c1)C1CCN(C2CCC2)CC1 |
| > 100 µM (inactive) | COc1cccc(-c2cccc(NC(=O)C3CCN(Cc4ccc(CO)o4)CC3)c2)c1 |
| > 100 µM (inactive) | Cc1ccc(NC(=S)NCCC(c2ccccc2)c2ccccc2)cc1C |
| > 100 µM (inactive) | CCn1cc(CN2CCC(C(=O)Nc3cccc(-c4cccc(F)c4)c3)CC2)cn1 |
| > 100 µM (inactive) | Cc1nn(C(C)C)c(C)c1CN1CCC(C(=O)Nc2cccc(-c3cccc(F)c3)c2)CC1 |
| > 100 µM (inactive) | Cn1cc(CN2CCC(C(=O)Nc3cccc(-c4cccc(F)c4)c3)CC2)cn1 |
| > 100 µM (inactive) | C=CCn1cc(CN2CCC(C(=O)Nc3cccc(-c4cccc(F)c4)c3)CC2)c(C)n1 |
| > 100 µM (inactive) | CCn1cc(CN2CCC(C(=O)Nc3cccc(-c4cccc(OC)c4)c3)CC2)cn1 |
| > 100 µM (inactive) | COc1ccc(NC(=S)NCCC(c2ccccc2)c2ccccc2)cc1 |
| > 100 µM (inactive) | Cc1ccc(C)c(NC(=S)NCCC(c2ccccc2)c2ccccc2)c1 |
| > 100 µM (inactive) | S=C(NCCC(c1ccccc1)c1ccccc1)Nc1ccc(Nc2ccccc2)cc1 |
| > 100 µM (inactive) | CCn1nc(C)c(CN2CCC(C(=O)Nc3cccc(-c4cccc(F)c4)c3)CC2)c1C |
| > 100 µM (inactive) | Fc1ccc(NC(=S)NCCC(c2ccccc2)c2ccccc2)cc1Cl |
| > 100 µM (inactive) | Cc1ccc(CN2CCC(C(=O)Nc3cccc(-c4cccc(F)c4)c3)CC2)o1 |
| > 100 µM (inactive) | Cc1c(CN2CCC(C(=O)Nc3cccc(-c4cccc(Cl)c4)c3)CC2)cnn1C |
| > 100 µM (inactive) | CN(C)S(=O)(=O)c1cccc(NC(=S)NCCC(c2ccccc2)c2ccccc2)c1 |
| > 100 µM (inactive) | COc1cccc(NC(=S)NCCC(c2ccccc2)c2ccccc2)c1 |
| > 100 µM (inactive) | S=C(NCCC(c1ccccc1)c1ccccc1)Nc1ccc(Cl)c(Cl)c1 |
| > 100 µM (inactive) | CCn1nc(C)c(CN2CCC(C(=O)Nc3cccc(-c4cccc(Cl)c4)c3)CC2)c1C |
| > 100 µM (inactive) | Cc1cccc(NC(=S)NCCC(c2ccccc2)c2ccccc2)c1C |
